Laboratory results from patent publication US8853406B2, “Substituted phenylenediamines as inhibitors of the interaction between MDM2 and P53” (Janssen Pharmaceutica NV, priority 2007, dated 2014).

Legend:
[1] = tested on: human U87 gliomoblastoma xenograft tumors; assay: In vivo anti tumour effects, U87 glioblastoma xenograft; design: species or system NMRI Nude mice; conditions: for tumor growth of pre-established U87 xenograft: 21 days; for in vivo antitumoral activity: s.c. U87 xenograft in NMRI Nude mice
Description: FIG. 7 is the Antitumoral effect of compound No. 1 in U87 Glioblastoma Xenograft Tumors in NMRI Nude mice: • On day 0, male NMRI Nude mice were inoculated with a single subcutaneous injection into the inguinal region with human U87 Glioblastoma tumor cells ([…]). On day 8, mice were treated p.o. with vehicle (control group; 10% hydroxypropyl-β-cyclodextrin (□)) or vehicle containing Co No. 1 at either 2.5 mg/kg (▴), 5 mg/kg (▾), 10 mg/kg (♦) or 20 mg/kg (●) for 21 days (QD×21). Subcutaneous tumor volumes and body weights were measured twice weekly, until end of study and results represented as relative tumor volumes (mm^3). Dosing period indicated under x-axis.
The minimal efficacious dose (according to the NCI standard) in this model was 5 mg/kg.
Immuno-deficient (athymic) male NMRI Nude (Nu/Nu) mice (20-25 g were obtained from Janvier, France) were used for theses studies. Initial weight was approximately […]. All animals were maintained under SPF “full barrier” conditions with free access to food and water. Mice were group housed under a 12-h light:dark cycle (lights on at 06:00 h) at a temperature of 19 to 22° C. and 35 to 40% humidity in Techniplast type-3 IVC cages. Mice were fed a standard Laboratory chow. All experiments were carried out in accordance with the European Communities Council Directives (86/609/EEC) and were approved by the local ethical committee. For an established tumor xenograft model (tumor volume ˜200 mm^3), mice were randomized according to tumor volumes, with 10 to 14 mice per treatment group.
The human U87 glioma tumor cell line was derived from a patient. Cells were cultured at 37° C. in a humidified atmosphere (5% CO2, 95% air), in DMEM medium supplemented with 2 mM L-glutamine, 2.0 mM sodium pyruvate, 25 units/ml penicillin/25 μg/ml streptomycin and 10% fetal bovine serum. Cells were maintained as cell monolayer cultures, being passaged twice weekly at 3×10^6 cells per T175 flask using the following procedure. Briefly cells were washed with PBS (without Mg^2+, Ca^2+), before addition of trypsin-EDTA to the culture flasks. After detachment of cells the trypsin-EDTA was inactivated by addition of complete medium. Cell suspension was then transferred to 50 ml Falcon tube and centrifuged for 3 min at 1200 rpm. Medium was aspirated, with the cells being re-suspended in an appropriate volume of complete medium. The cells were counted in a haemocytometer and their viability was assessed by 0.25% trypan blue exclusion. An appropriate volume of cell suspension was then added to either a new T175 culture flask(s) or roller bottle containing fresh medium. For large scale-up growth of U87 tumor cells, an appropriate number of roller bottles were seeded with 0.5 to 1×10^7 cells 1 week prior to inoculation of mice. The medium was changed twice during this period, with the last change being the day prior to cell injection. Cells were collected as described above, with the exception that after centrifugation, the cells were re-suspended in cold (4° C.) serum-free medium. Mice were injected in the inguinal region with 1×10^7 cells total in a 200 μl volume.
Human U87 glioma cells were injected directly into the inguinal region of the male NMRI Nude mice (1×10^7 cells/200 μl/animal) on day 0 (D0). […] Tumor size and body weights were measured twice weekly, with mice monitored daily for clinical signs of toxicity for the duration of the treatment. […]

Male NMRI mice = assay: Ro-4-1284 antagonism in mice (drug induced neurological effects); format: in vivo; conditions: for activity on observations in Ro-4-1284 antagonism test: 80 mg/kg, oral administration, 3 animals; for drug induced neurological side effects: Ro-4-1284 antagonism in mice
Description: The test is a modification of a procedure described by Colpaert et al. (1975).^3 Male NMRI mice (22±3 g) were housed in macrolon observation cages (L×W×H: 11×12×17 cm; n=3 per cage). At the start of the experiments immediately before test compound administration, the initial body temperature of the mice was measured with a precision of 0.1° C. by inserting the thermo-sensitive probe (1.0 mm diameter) of an electric thermometer (Comark) to a constant depth of 3 cm into the esophagus until a stable reading was obtained. The right eye pupil diameter was measured with a graduated microscope and expressed in 1/24 mm units. Fifteen min after test compound administration, the mice were challenged with Ro-4-1284 (10 mg/kg, s.c.). Ro-4-1284 is a reserpine-like vesicular monoamine transport (VMAT-2) inhibitor, which rapidly depletes secretory vesicles.^3,4 Fifteen, 30 and 60 min after challenge, the mice were scored for palpebral opening (0, 1, 2, 3, 4, 5) and locomotor activity (−1, 0, 1, 2, 3). At the 60-min interval, immediately after the scoring of overt behavior, the right eye pupil diameter and the esophageal temperature were measured again. Abnormal phenomena such as intensive sniffing, chewing, rearing, hyperemia, piloerection, salivation, tremors, convulsions and death were noted (the latter phenomena were also noted when occurring before Ro-4-1284 administration). Criteria for drug-induced effects: reversal of ptosis: palpebral opening score >1 at 15, 30 or 60 min (2.7, 0.5 and 0% false positive controls, respectively; n>350); induction of prostration: score −1 for locomotion at 15, 30 or 60 min (never observed in controls); reversal of hypomotility: score >0 for locomotion at 15, 30 and 60 min (2.2, 0.8 and 0% false positive controls, respectively); reversal of miosis: pupil diameter >5 units at 60 min (0.8% false positives); potentiation of hypothermia: temperature decrease (over the 1-h time interval)>9.0° C. (1.4% false positives); reversal of hypothermia: temperature decrease <3.0° C. (1.8% false positives).
According to the standard procedure, R0-4-1284 is injected 15 min following subcutaneous or oral administration and observations start 15 min later. Doses are initially given to 3 animals. When at least 2 out of the 3 animals show activity for at least one of the observations, the compound is considered active.

SMILES	tumor growth of pre-established U87 xenograft ([1]; 10 mg/kg oral)	tumor growth of pre-established U87 xenograft ([1]; 20 mg/kg oral)	minimal efficacious dose (according to the NCI standard) ([1]; U87 xenograft, oral QD x 21) [mg/kg]	in vivo antitumoral activity ([1]; listed as Co No. 1)	activity on observations in Ro-4-1284 antagonism test (Male NMRI mice)	drug induced neurological side effects (Male NMRI mice)	in vivo antitumoral activity [1]
Cc1cc(Nc2ccnc3c2CCC3O)ccc1NCCc1c[nH]c2c(C)cccc12 (single isomer, unassigned) [Compound No. 1]	complete tumor growth inhibition and regression	complete tumor growth inhibition and regression	5	potent inhibition in growth	did not show activity on any observation on any animal	No	
Cc1cc(Nc2ccnc3c2CCC3O)ccc1NCCc1c[nH]c2c(C)cccc12 (single isomer, unassigned) [Compound No. 2]					did not show activity on any observation on any animal	No	showed in vivo antitumoral activity
